# According to patent EP0079397A1, “Asymmetrically substituted (2,4,6-triodoanilides) of dicarboxylic acids, their preparation and X-ray contrast agents containing them” (SCHERING AKTIENGESELLSCHAFT, priority 1981, dated 1983):
# Read-outs that look alike come from different tables or passages of the source.
# What was measured:
# in vivo [1] = experiment: in vivo; set-up: species or system Ratte; conditions: rat, iv, 60 mg/kg
# Description: • 1) Injektion der Kontrastmittel als Megluminsalzlösungen mit 180 mg Jod/ml mit einer Geschwindigkeit von 0,8 ml/min bei 100 g schweren männlichen und weiblichen Ratten. • 2) Männlichen und weiblichen Ratten im Gewicht von etwa 100 g wurden in leichter Äthernarkose je 0,04 ml unterschiedlich konzentrierter Kontrastmittellösungen nach der Methode von Valzelli durch eine natürliche Knochenspalte des Schädels zwischen Joch- und Hinterhauptbein intrazerebral injiziert. Die Injektion erfolgte mit einer Hamilton Spritze 710 N, bei der die Einstichtiefe auf 10 mm begrenzt ist. Je Präparat wurden mindestens 4 Dosierungen an 10 Tieren untersucht. Als Wirkungskriterien wurden über den Zeitraum von 24 Stunden Exzitationszustände, schwere Haltungsanomalien, Koma und Tod bewertet. • 3) Bei grundsätzlich gleicher Versuchsanlage wie unter 2) beschrieben, wurden 200-250 g schweren Ratten die Kontrastmittel in die Cisterna suboccipitalis injiziert. Die Kontrastmittel wurden mit 3%iger Mannit-lösung verdünnt, um den osmotischen Druck anzupassen. • 4) Ratten (ca. 150 g Körpergewicht) wurde in Ithernarkose ein Polyäthylenschlauch in den Ductus choledochus eingebunden. Etwa eine Stunde nachdem die Tiere aus der Narkose erwacht waren, wurden die Kontrastmittel in einer Dosis von 60 mg Jod/kg intravenös injiziert und die Galle bis 3 Stunden nach der Injektion fraktioniert gesammelt. • 5) Intakten Ratten von etwa 100 g Körpergewicht wurde 20 Minuten vor der Verabreichung des Kontrastmittels 5 ml Wasser und dann in 1-stündigem Abstand nach der Verabreichung der Prüfsubstanzen 3 mal je 2 ml Wasser oral verabreicht. bis 3 Stunden nach der i.v. Injektion des Kontrastmittels in einer Dosis von 60 mg Jod/kg wurde der Harn quantitativ gesammelt. • 4), 5) die Messung des Kontrastmittels erfolgte entweder aufgrund der ^131J-Aktivität in den Proben oder bei nicht radioaktiv markierten Kontrastmitteln mit Hilfe der Röntgenfluoreszenz des Jods.
# Ratte [2] = experiment: Neural tolerance after intracisternal injection in rats; type: in vivo; conditions: injection into Cisterna suboccipitalis, 200-250 g rats, diluted with 3% mannitol solution
# Description: (§1) • 1) Injektion der Kontrastmittel als Megluminsalzlösungen mit 180 mg Jod/ml mit einer Geschwindigkeit von 0,8 ml/min bei 100 g schweren männlichen und weiblichen Ratten. • 2) Männlichen und weiblichen Ratten im Gewicht von etwa 100 g wurden in leichter Äthernarkose je 0,04 ml unterschiedlich konzentrierter Kontrastmittellösungen nach der Methode von Valzelli durch eine natürliche Knochenspalte des Schädels zwischen Joch- und Hinterhauptbein intrazerebral injiziert. Die Injektion erfolgte mit einer Hamilton Spritze 710 N, bei der die Einstichtiefe auf 10 mm begrenzt ist. Je Präparat wurden mindestens 4 Dosierungen an 10 Tieren untersucht. Als Wirkungskriterien wurden über den Zeitraum von 24 Stunden Exzitationszustände, schwere Haltungsanomalien, Koma und Tod bewertet. • 3) Bei grundsätzlich gleicher Versuchsanlage wie unter 2) beschrieben, wurden 200-250 g schweren Ratten die Kontrastmittel in die Cisterna suboccipitalis injiziert. Die Kontrastmittel wurden mit 3%iger Mannit-lösung verdünnt, um den osmotischen Druck anzupassen. • 4) Ratten (ca. 150 g Körpergewicht) wurde in Ithernarkose ein Polyäthylenschlauch in den Ductus choledochus eingebunden. […]
# [3] = Protein binding to human serum; type: in vitro ADME; conditions: at ca. 1,2 mg Jod/ml, meglumine salts, read-out: Proteinbindung an Humanserum (converted)
# Ratte [4] = experiment: Acute intravenous toxicity (DL50) in rats; type: in vivo; conditions: meglumine salt solutions 180 mg Jod/ml, 0,8 ml/min, 100 g rats
# Description: as §1
# Ratte [5] = experiment: Neural tolerance after pericerebral injection in rats (method of Valzelli); type: in vivo; conditions: 0,04 ml injected, ca. 100 g rats, 24 h observation: excitation, posture anomalies, coma, death
# Description: as §1
# [6] = Partition coefficient butanol/water; type: physicochemical; conditions: meglumine salts
# Leber [7] = conditions: man; cited from earlier work
# Leber des Hundes = experiment: Maximum enrichment in dog liver by computed tomography; conditions: 360 mg Jod/kg i.v.; for maximale Anreicherung in der Leber des Hundes: meglumine salt solutions 180 mg Jod/ml, CT up to 90 min
# Description: (§2) Die Werte wurden an gesunden weiblichen und männlichen Beagle-Hunden (Züchter: Schering) im Gewicht von 9-14 kg ermittelt.
# (§3) Die Megluminsalzlösungen enthielten 180 mg Jod/ml.
# (§4) Die Scanzeit betrug 20 Sekunden, die Röhrenspannung 120 kV. Bei einer Bildmatrix von 320 x 320 Elementen betrug die Standardabweichung vom Mittelwert eines normierten Wasserphantoms 1,6 % (d.h. + 8 EU = EMI-Units.
# (§5) Die Auswertung der Computertomogramme stets des gleichen Leberareals erfolgte mit Hilfe der Auswerteeinheit "IVC" der Fa. EMI.
# Leber [8] = conditions: dog; cited from earlier work
# in vivo [9] = conditions: dog, iv
# Description: as §2, §3, §4, §5
Tmax (in vivo [9]),Compound,dose excreted at 0.5 h (in vivo [1]),dose excreted at 3 h (in vivo [1]),"Ratte, intrazisternal, ED50 (Ratte [2])",fraction unbound [3],"DL50, i.v., Ratte (Ratte [4])","Ratte, pericerebral, ED50 (Ratte [5])",Verteilungskoeffizient Butanol/Wasser pH 7.4 [6],Konzentration in der Leber (Leber [7]),maximale Anreicherung in der Leber des Hundes (Leber des Hundes),"maximale Anreicherung in der Leber des Hundes, min. p. appl. (Leber des Hundes; time of maximum enrichment)",Konzentration in der Leber (Leber [8])
,"O=C(CCCCC(=O)Nc1c(I)cc(I)c(C(=O)O)c1I)Nc1c(I)cc(I)c(C(=O)O)c1I [B, Iodipamid]",59.4%,91.5%,"1,07 (0,54-1,83) mg Jod/kg",0.23,"2,6 g Jod/kg","6,35 (5,11-7,44) mg Jod/kg","0,278 ± 0,008",,,,
,"CNC(=O)c1c(I)c(NC(=O)CCCCCCCCC(=O)Nc2c(I)c(C(=O)O)c(I)c(C(=O)NC)c2I)c(I)c(C(=O)O)c1I [D, Iosefamsäure]",,,,,,,,nicht mehr genügende,"22,8 EMI-Units",80 min. p. appl.,noch ausreichende
1.5 h,"CNC(=O)c1c(I)c(NC(=O)COCC(=O)N(C)c2c(I)cc(I)c(C(=O)O)c2I)c(I)c(C(=O)O)c1I [E, 3-Oxapentan-disäure-l-(3-carboxy-2,4,6-trijod-N-methylanilid)-5-(3-carboxy-5N-methylcarbamoyl-2,4,6-trijodanilid)]",,,,,,,,,"42,1 EMI-Units",,
,"CNC(=O)c1c(I)c(NC(=O)CCCCC(=O)Nc2c(I)cc(I)c(C(=O)O)c2I)c(I)c(C(=O)O)c1I [Verbindung A, Hexandisäure-1-(3-carboxy-2,4,6-trijod-anilid)-6-(3-carboxy-5-N-methylcarbamoyl-2,4,6-trijodanilid)]",61.3%,85.9%,"15,6 (11,5-21,1) mg Jod/kg",0.57,"5,5 g Jod/kg","17,1 (11,8-23,6) mg Jod/kg","0,083 ± 0,001",,,,
